This note sets out measurements from US10206908B2, “3-(1H-pyrrolo[3,2-C]pyridin-2-YL)-1H-pyrazolo[3,4-C]pyridines and therapeutic uses thereof” (Samumed, LLC, priority 2015, dated 2019).

Holding throughout (assay type): cell-based
Test [1] deals with Wnt activity (Sp5-Luc reporter, SW480 colon carcinoma cells). The test can be described thus: Screening assay for Wnt activity: Sp5-Luc reporter gene assay in SW480 colon carcinoma cells. To be noted: Homo sapiens; Sp5-Luc reporter, SW480 cells, overnight incubation. Put shortly: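 SW480 colon carcinoma cells stably carrying Sp5 promoter (eight TCF/LEF sites)-driven firefly luciferase, plated at 4,000 cells/well in 1% FBS medium and incubated overnight at 37° C. Luminescence normalised to DMSO-only cells; EC50 from four-parameter variable-slope nonlinear regression.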

The next test deals with SW480 colon cancer cells. In words: Cell viability assay (CellTiter-Blue) in SW480 colon cancer cells. To be noted: Homo sapiens; for pEC50: 96 h, SW480 cell viability, four days. Put shortly: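 Fluorescence from resazurin reduced to resorufin by metabolically active cells was the read-out, taken after ~3 h with CellTiter-Blue.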
Test [2] relates to primary human fibroblasts derived from IPF patients (LL29 cells) treated with TGF-β1. The test can be described thus: Inhibition of the fibrotic process: αSMA staining in TGF-β1 treated LL29 fibroblasts. To be noted: Fibroblast, 96 h, % αSMA positive LL29 cells, TGF-β1 20 ng/mL, 4 days. Put shortly: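 IPF-patient-derived LL29 lung fibroblasts in F12 with 1% FBS, stimulated with TGF-β1 alongside compound; TGF-β1 plus DMSO wells served as controls. After 4 days, nuclei stained with 1 μM SYTOX green for 30 min at room temperature, alongside αSMA staining.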

In another test the test system is IL-6 (THP-1 cells). The test can be described thus: IL-6 inhibition in LPS-stimulated THP-1 monocytes (HTRF). To be noted: Homo sapiens; IL-6, THP-1 cells, LPS 500 ng/mL, 22 hours. Put shortly:
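THP-1 cells kept 24 h in 1% FBS medium, exposed to compound 2 h at 37 °C, then stimulated with 500 ng/mL LPS for 22 h. Secreted IL-6 quantified by HTRF (665/620 nm ratio), duplicates. Values normalized to DMSO; EC50 by four-parameter variable-slope regression.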

For test [3], the system named is primary human mesenchymal stem cells (hMSCs). In words: Induction of chondrogenesis in hMSCs (chondrogenic nodules, Rhodamine B/Nile Red). To be noted: 6 days; for EC50: concentration required to induce 50% levels of chondrogenesis vs TGF-β3, read-out: Conc (nM) of 50% TGF-β3 activity; for Emax: relative to TGF-β3 (10 ng/mL) positive control, read-out: Max. Activity as % TGF-β3 activity. Put shortly:
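Primary hMSCs at passages 3 to 6 were scored for chondrogenic nodules. Counts were normalized to the mean of 3 DMSO wells on the same plate, averaging 3 replicate wells per concentration. TGF-β3 served as positive control; reported values are the concentration giving 50% chondrogenesis plus maximum activity and its dose.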

pEC50: −log10 of the molar value.

As for `CN(C)CCOc1cncc(-c2cc3c(-c4cc5c(-c6ccc(F)cc6)nccc5[nH]4)n[nH]c3cn2)c1` [Compound 531, 2-((5-(3-(4-(4-Fluorophenyl)-1H-pyrrolo[3,2-c]pyridin-2-yl)-1H-pyrazolo[3,4-c]pyridin-5-yl)pyridin-3-yl)oxy)-N,N-dimethylethan-1-amine], the pEC50 was 5.49 in test [1], 5.44 in the test with SW480 colon cancer cells, 6.04 in test [2] and 5.46 with IL-6 (THP-1 cells). In test [3], the EC50 was 900 nM. The Emax in test [3] worked out at 113%.
Regarding `Fc1ccccc1-c1nccc2[nH]c(-c3n[nH]c4cnc(-c5cn[nH]c5)cc34)cc12` [Compound 539, 3-(4-(2-Fluorophenyl)-1H-pyrrolo[3,2-c]pyridin-2-yl)-5-(1H-pyrazol-4-yl)-1H-pyrazolo[3,4-c]pyridine], the pEC50 in test [1] is 7.52; in the test on SW480 colon cancer cells, under 5.00; in test [2], 7.12; in the test with IL-6 (THP-1 cells) it was 6.41. In the test with SW480 colon cancer cells (SW480, read-out: percent inhibition at 10 μM), the inhibition at 10 µM stood at 44.4%. In addition, in test [3], the EC50 is 10 nM. Besides, in test [3], the Emax is 89%.
For `Oc1cncc(-c2cc3c(-c4cc5c(-c6cccs6)nccc5[nH]4)n[nH]c3cn2)c1` [Compound 709, 5-(3-(4-(Thiophen-2-yl)-1H-pyrrolo[3,2-c]pyridin-2-yl)-1H-pyrazolo[3,4-c]pyridin-5-yl)pyridin-3-ol], the pEC50 in test [1] is 5.99; in the test with SW480 colon cancer cells, 5.20; in test [2], 6.47; with IL-6 (THP-1 cells), 5.50. The EC50 in test [3] is 10 nM. In addition, the Emax in test [3] was 83%.
For `CS(=O)(=O)NCc1cc(F)cc(-c2nccc3[nH]c(-c4n[nH]c5cnc(-c6cncc(OCc7ccccc7)c6)cc45)cc23)c1` [Compound 774, N-(3-(2-(5-(5-(Benzyloxy)pyridin-3-yl)-1H-pyrazolo[3,4-c]pyridin-3-yl)-1H-pyrrolo[3,2-c]pyridin-4-yl)-5-fluorobenzyl)methanesulfonamide], the pEC50 in test [1] is 5.82; in the test with SW480 colon cancer cells, 5.61; in test [2] it was 6.44; with IL-6 (THP-1 cells), 5.96. Also, the EC50 in test [3] worked out at 300 nM. The Emax in test [3] was 115%.
